Data on 2 molecules can be found in patent US7427620B2, “Azole derivative useful as antifungal agents with reduced interaction with metabolic cytochromes” (Italfarmaco SPA, priority 2003, dated 2008).

In brackets after ≈: the same amount, converted by molar mass. Like-named read-outs stand apart in the source and are kept apart here.

One series concerns the target T1, CYP2D6 (Homo sapiens, UniProt P10635).
T1 construct: purchased Gentest
The experiment in a line: Inhibition of human cytochromes, fluorescent substrates. Type of series: in vitro ADME. The note with it: isoenzyme (Gentest), 37° C. As for the experimental part: (§1) Experiment B: Inhibition of Human Cytochromes by Compounds of the Formula (I)
(§2) Inhibition of the enzymatic activity of the most significant isoforms of human cytochromes by the compounds of the formula (I) was measured by using specific substrates which become fluorescent as a result of the metabolic action of a particular cytochrome isoform. The individual isoenzymes (Gentest) and the respective substrates were incubated in 96 well plates in buffer containing […] at 37° C. in the presence or absence of the compound under investigation. […] The degree of inhibition of each individual isoenzyme by known inhibitors was also assessed as a positive control.

The target in the next series is T2, CYP1A2 (Homo sapiens, UniProt P05177).
T2 construct: purchased Gentest
T2 sequence (P05177 1-516): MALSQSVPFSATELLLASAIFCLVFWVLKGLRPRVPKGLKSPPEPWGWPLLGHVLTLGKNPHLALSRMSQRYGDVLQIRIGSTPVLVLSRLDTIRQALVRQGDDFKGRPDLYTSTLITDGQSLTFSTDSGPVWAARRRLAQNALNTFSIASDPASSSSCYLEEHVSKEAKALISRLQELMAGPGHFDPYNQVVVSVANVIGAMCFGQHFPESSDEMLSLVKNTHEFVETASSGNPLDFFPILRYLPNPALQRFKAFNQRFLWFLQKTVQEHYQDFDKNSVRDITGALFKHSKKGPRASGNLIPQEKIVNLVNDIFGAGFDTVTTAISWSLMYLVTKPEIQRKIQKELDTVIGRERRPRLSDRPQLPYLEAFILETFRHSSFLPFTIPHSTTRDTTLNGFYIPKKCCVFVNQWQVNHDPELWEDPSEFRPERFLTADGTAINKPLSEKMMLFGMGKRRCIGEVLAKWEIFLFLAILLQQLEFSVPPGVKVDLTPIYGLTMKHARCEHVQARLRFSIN
Described as above. It counts as in vitro ADME. The note with it: isoenzyme (Gentest), 37° C. How it is done: as §1, §2

In the next series the target is T3, CYP2C9 (Homo sapiens, UniProt P11712).
T3 construct: purchased Gentest
Described as above. The note with it: isoenzyme (Gentest), 37° C. It counts as in vitro ADME. How it is done: as §1, §2

The target in another series is T4, CYP2C19 (Homo sapiens, UniProt P33261).
T4 construct: purchased Gentest
The series is described as above. It counts as in vitro ADME. The note with it: isoenzyme (Gentest), 37° C. How it is done:
as §1, §2

For a further series, the system named is Candida glabrata. The experiment in a line: Antifungal activity, liquid phase microdilution (NCCLS M27/M38-P). Type of series: cell-based. As for the experimental part:
(§3) Experiment A: Antifungal Activity of Compounds of the Formula (I)
(§4) The antifungal activity of the compounds of the formula (I) was determined using various strains of yeast and filamentous fungi. […] Table no.
On the technique in general: Broth dilution looks for growth in wells or tubes with falling amounts of substance.

Series [1] concerns Candida albicans. Described as above. It counts as cell-based. As for the experimental part:
as §3, §4

A further series deals with Candida parapsilosis. The description is as above. Type of series: cell-based. How it is done: as §3, §4
The next series has as its system Aspergillus fumigatus. The description is as above. It counts as cell-based. Also on record: IC50 (minimum concentration to bring about 50% inhibition): unit not given here. The note with it: for IC50: Aspergillus fumigatus. How it is done:
as §3, §4

Series [2] has as its system Candida albicans. The experiment in a line: Mouse model of systemic candidiasis, survival. It counts as in vivo, CD1 mice. The note with it: for Average survival (days) ± S.D.: observed until day 30. As for the experimental part:
Experiment C: Study of the Efficacy of Compounds of the Formula (I) in a Mouse Model of Systemic Candidiasis.
The C. albicans isolate was cultured for 24 h in yeast dextrose broth. The blastospores were recovered by centrifugation, repeatedly washed in sterile saline solution and the inoculum adjusted to the desired concentration. The inoculum was verified by a subsequent count of CFU/ml on Sabouraud plates.
The mice were then inoculated intravenously (0.2 ml/mouse).
24 hours after inoculation with C. albicans, the animals were randomised into the following treatment groups (10 mice/group): • 1. […] Compound under investigation: 50 mg/kg/day (two 25 mg/kg treatments twice daily at 12 hour intervals) • 3. Compound under investigation; 10 mg/kg/day (two 5 mg/kg treatments twice daily at 12 hour intervals) • 4. Control (placebo)
The compounds were administered orally (suspension in PEG 200, 0.2 ml/mouse) for 10 consecutive days and the animals were observed until day 30. The survival curves between the various treatment groups and between these groups and the control group were evaluated using the Kaplan-Meier method.

The next series concerns the target T5, CYP3A4 (Homo sapiens, UniProt P08684).
T5 construct: purchased Gentest
Kind of series: Inhibition of human cytochromes, fluorescent substrates. The note with it: isoenzyme (Gentest), 37° C. Type of series: in vitro ADME. As for the experimental part:
as §1
The individual isoenzymes (Gentest) and the respective substrates were incubated in 96 well plates in buffer containing […] at 37° C. in the presence or absence of the compound under investigation. […] The degree of inhibition of each individual isoenzyme by known inhibitors was also assessed as a positive control.

Setting [3] is: 50 mg/kg/day orally (25 mg/kg twice daily) for 10 days.
The mark [4] stands for this setting: 10 mg/kg/day orally (5 mg/kg twice daily) for 10 days.

T1 sequence (P10635 whole entry): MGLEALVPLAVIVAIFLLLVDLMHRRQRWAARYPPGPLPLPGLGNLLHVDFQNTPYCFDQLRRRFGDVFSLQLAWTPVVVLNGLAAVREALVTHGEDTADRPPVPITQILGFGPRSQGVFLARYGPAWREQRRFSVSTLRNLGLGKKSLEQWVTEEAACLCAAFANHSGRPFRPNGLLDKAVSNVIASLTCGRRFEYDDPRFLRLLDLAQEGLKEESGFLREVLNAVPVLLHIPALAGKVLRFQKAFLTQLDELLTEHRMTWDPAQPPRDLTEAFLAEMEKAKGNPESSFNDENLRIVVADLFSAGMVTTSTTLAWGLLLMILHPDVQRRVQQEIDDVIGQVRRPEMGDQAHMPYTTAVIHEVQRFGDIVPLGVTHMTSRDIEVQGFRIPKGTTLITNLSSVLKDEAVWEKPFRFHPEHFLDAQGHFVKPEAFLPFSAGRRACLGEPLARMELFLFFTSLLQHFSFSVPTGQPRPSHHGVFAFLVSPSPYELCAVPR
T3 sequence (P11712 whole entry): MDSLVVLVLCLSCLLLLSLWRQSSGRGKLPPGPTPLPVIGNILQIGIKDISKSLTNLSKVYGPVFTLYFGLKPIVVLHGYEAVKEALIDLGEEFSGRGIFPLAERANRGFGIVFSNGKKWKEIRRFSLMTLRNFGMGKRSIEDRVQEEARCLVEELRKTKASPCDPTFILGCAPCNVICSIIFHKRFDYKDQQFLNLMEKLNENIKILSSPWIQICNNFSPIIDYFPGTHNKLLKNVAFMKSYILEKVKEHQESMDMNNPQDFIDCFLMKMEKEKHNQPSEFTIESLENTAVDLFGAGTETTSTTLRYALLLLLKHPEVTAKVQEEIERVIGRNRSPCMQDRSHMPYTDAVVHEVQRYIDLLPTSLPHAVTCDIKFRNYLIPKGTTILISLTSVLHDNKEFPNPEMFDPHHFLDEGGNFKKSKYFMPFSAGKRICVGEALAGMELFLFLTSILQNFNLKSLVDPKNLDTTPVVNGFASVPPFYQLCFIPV
T4 sequence (P33261 whole entry): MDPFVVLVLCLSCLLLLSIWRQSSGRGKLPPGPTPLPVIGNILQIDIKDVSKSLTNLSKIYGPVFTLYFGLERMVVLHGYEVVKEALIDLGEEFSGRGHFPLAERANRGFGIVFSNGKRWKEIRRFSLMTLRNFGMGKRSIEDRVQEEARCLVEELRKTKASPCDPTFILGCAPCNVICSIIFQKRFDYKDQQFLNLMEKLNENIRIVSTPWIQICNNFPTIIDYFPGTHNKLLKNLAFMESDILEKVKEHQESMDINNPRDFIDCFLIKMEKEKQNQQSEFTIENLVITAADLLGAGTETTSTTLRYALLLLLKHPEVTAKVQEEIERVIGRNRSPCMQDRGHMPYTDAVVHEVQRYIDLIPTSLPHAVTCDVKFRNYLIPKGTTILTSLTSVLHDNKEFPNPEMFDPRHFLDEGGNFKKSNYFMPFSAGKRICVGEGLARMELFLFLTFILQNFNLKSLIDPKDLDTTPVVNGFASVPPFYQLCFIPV
T5 sequence (P08684 whole entry): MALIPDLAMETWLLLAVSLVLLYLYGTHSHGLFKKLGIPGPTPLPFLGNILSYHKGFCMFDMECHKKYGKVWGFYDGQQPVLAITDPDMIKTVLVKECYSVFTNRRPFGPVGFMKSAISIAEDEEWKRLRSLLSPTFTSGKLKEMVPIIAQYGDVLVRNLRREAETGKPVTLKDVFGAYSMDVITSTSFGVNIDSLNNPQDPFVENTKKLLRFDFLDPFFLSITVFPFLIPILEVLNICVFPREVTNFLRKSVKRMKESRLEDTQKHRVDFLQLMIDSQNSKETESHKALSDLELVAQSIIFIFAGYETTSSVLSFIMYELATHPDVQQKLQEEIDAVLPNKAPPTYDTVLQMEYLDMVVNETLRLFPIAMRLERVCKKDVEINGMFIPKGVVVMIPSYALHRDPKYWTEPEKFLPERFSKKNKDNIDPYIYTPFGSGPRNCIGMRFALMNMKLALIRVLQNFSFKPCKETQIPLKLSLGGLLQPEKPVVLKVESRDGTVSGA

Turning to `CCC(C)n1ncn(-c2ccc(N3CCN(c4ccc(OCC5COC(Cn6cncn6)(c6ccc(Cl)cc6Cl)O5)cc4)CC3)cc2)c1=O` (centres unmarked) [Itraconazole, reference compound], the IC50 was greater than 100 µM against CYP2D6; greater than 100 µM against CYP1A2; 1.6 ± 0.2 µM on CYP2C9; 0.2 ± 0.06 µM against CYP2C19; 500 µg/mL (≈ 709 µM) in the series on Candida glabrata (Nakaseomyces glabratus, read-out: IC50 (minimum concentration to bring about 50% inhibition)); no more than 30 µg/mL in the series with Candida albicans [1] (Candida albicans, read-out: IC50 (minimum concentration to bring about 50% inhibition)). Moreover, the IC50 amounted to 120 µg/mL (≈ 170 µM) in the series on Candida parapsilosis (Lodderomyces parapsilosis, ATCC22019, read-out: IC50 (minimum concentration to bring about 50% inhibition)); 1000 µg/mL (≈ 1420 µM) in the series on Aspergillus fumigatus (read-out: IC50 (minimum concentration to bring about 50% inhibition), Aspergillus fumigatus strain 34); 250 µg/mL (≈ 354 µM) in the series with Aspergillus fumigatus (read-out: IC50 (minimum concentration to bring about 50% inhibition), Aspergillus fumigatus strain 99-2135). Moreover, in the series on Candida albicans [2] (setting [3]), the “Surviving mice 21 days after infection” value was 0%. In addition, the “Average survival (days) ± S.D.” value with Candida albicans [2] (setting [3]) came out at 9.2 ± 1.1 days.
With “cis(±)-4-{4-[4-{4-[2-(pyridin-2-yl)-2-(1H-1,2,4-triazol-1-ylmethyl)-1,3-dioxolan-4-yl-methoxy]phenyl}-1-piperazinyl]-phenyl}-2-(1-(R,S)methylpropyl)-2,4-dihydro-3H-1,2,4-triazol-3-one [Example 9]”, the IC50 was greater than 100 µM against CYP2D6; greater than 100 µM against CYP1A2; 54.1 ± 5.2 µM on CYP2C9; 40.7 ± 12.7 µM against CYP2C19; 220 ± 50 nM on CYP3A4. Besides, the “IC50 (minimum concentration to bring about 50% inhibition)” value in the series with Candida glabrata (Candida glabrata strain 02-0902) was 1 mg/mL; in the series on Candida albicans [1] (Candida albicans strain 21), 39 mg/mL; in the series with Candida albicans [1] (Candida albicans strain gen-45), “≦0.03 mg/ml”; in the series on Candida parapsilosis (Candida parapsilosis strain ATCC22019) it was “≦0.03 mg/ml”; with Aspergillus fumigatus (Aspergillus fumigatus strain 34), 0.25; with Aspergillus fumigatus (Aspergillus fumigatus strain 99-2135) it was 0.25. In addition, the “Surviving mice 21 days after infection” value with Candida albicans [2] (setting [4]) came out at 0%; in the series on Candida albicans [2] (setting [3]) it was 10%. The “Average survival (days) ± S.D.” value in the series on Candida albicans [2] (setting [4]) is reported as 6.6 ± 0.8 days; with Candida albicans [2] (setting [3]), 9.1 ± 1.5 days.
